# Data as given in article PMC3654253 (Biochemical pharmacology, 2013).
# “Also recorded” adds a separate entry of the source.
# Legend:
# [1] = system: insect NaV channels (cockroach DUM neurons); test: Whole-cell patch-clamp, NaV channel currents; assay type: cell-based, American cockroach (Periplaneta americana)
# NaV channels = conditions: cited from earlier work
structure (smiles),measurement,setting,value
"NC1=N[C@H](O)[C@H]2[C@H]3O[C@]4(O)O[C@@H]([C@@H](O)[C@@]2(N1)[C@@H]4O)[C@]3(O)CO [TTX, tetrodotoxin]",inhibition of INa by TTX,[1],complete INa inhibition; also recorded: Complete block of INa
same,effect on peak INa,NaV channels,reduce peak INa
